# Measured values published in article PMC12090182, “Repurposing of the RIPK1-Selective Benzo[1,4]oxazepin-4-one Scaffold for the Development of a Type III LIMK1/2 Inhibitor” (ACS Chemical Biology, 2025).
# Like-named read-outs stand apart in the source and are kept apart here.
# Test system: U2OS cells
# Assay type: cell-based
# Conditions: U2OS
# How it was run: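 HEK293T and U2OS cells (DMEM) and MRC-9 fibroblasts (EMEM) exposed to compounds at 1 and 10 μM. Live-cell confocal imaging of cell shape and fluorescence before and at 12, 24 and 48 h. Normalized to 0.1% DMSO; biological duplicates with SEM.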
# [1] = 1 µM, 0 h after treatment, biological replicate 1
# [2] = 1 µM, 0 h after treatment, biological replicate 2
# [3] = 1 µM, 12 h after treatment, biological replicate 1
# [4] = 1 µM, 12 h after treatment, biological replicate 2
# [5] = 1 µM, 24 h after treatment, biological replicate 1
# [6] = 1 µM, 24 h after treatment, biological replicate 2
# [7] = 1 µM, 48 h after treatment, biological replicate 1
# [8] = 1 µM, 48 h after treatment, biological replicate 2
# [9] = 10 µM, 0 h after treatment, biological replicate 1
# [10] = 10 µM, 0 h after treatment, biological replicate 2
# [11] = 10 µM, 12 h after treatment, biological replicate 1
# [12] = 10 µM, 12 h after treatment, biological replicate 2
# [13] = 10 µM, 24 h after treatment, biological replicate 1
# [14] = 10 µM, 24 h after treatment, biological replicate 2
# [15] = 10 µM, 48 h after treatment, biological replicate 1
# [16] = 10 µM, 48 h after treatment, biological replicate 2
smiles,measurement,setting,value
CC(C)C(=O)Nc1ncc(C(=O)NCCN(Cc2ccccc2)C(=O)c2ccc(S(=O)(=O)Nc3ccccc3)cc2)s1 [TH470],Cell count normalized to cells treated with DMSO control,[1],0.966
same,Cell count per well,[1],201
same,Population Fragmented Nuclei (%),[1],47.72%
same,Population Healthy Nuclei (%),[1],44.16%
same,Population Pyknosed Nuclei (%),[1],8.12%
same,Population apoptotic cell (%),[1],87.50%
same,Population cell that influence microtubule strucutre (%),[1],6.90%
same,Population with increased mitochondrial mass (%),[1],2.30%
same,Population with membrane disruption (%),[1],9.20%
same,Cell count normalized to cells treated with DMSO control,[2],1.038
same,Cell count per well,[2],89
same,Population Fragmented Nuclei (%),[2],15.73%
same,Population Healthy Nuclei (%),[2],79.78%
same,Population Pyknosed Nuclei (%),[2],4.49%
same,Population apoptotic cell (%),[2],50.00%
same,Population cell that influence microtubule strucutre (%),[2],5.63%
same,Population with increased mitochondrial mass (%),[2],4.23%
same,Population with membrane disruption (%),[2],4.23%
same,Cell count normalized to cells treated with DMSO control,[3],0.8658
same,Cell count per well,[3],229
same,Population Fragmented Nuclei (%),[3],36.24%
same,Population Healthy Nuclei (%),[3],55.96%
same,Population Pyknosed Nuclei (%),[3],7.80%
same,Population apoptotic cell (%),[3],76.47%
same,Population cell that influence microtubule strucutre (%),[3],1.64%
same,Population with increased mitochondrial mass (%),[3],4.10%
same,Population with membrane disruption (%),[3],4.10%
same,Cell count normalized to cells treated with DMSO control,[4],1.074
same,Cell count per well,[4],127
same,Population Fragmented Nuclei (%),[4],17.89%
same,Population Healthy Nuclei (%),[4],73.98%
same,Population Pyknosed Nuclei (%),[4],8.13%
same,Population apoptotic cell (%),[4],100.00%
same,Population cell that influence microtubule strucutre (%),[4],4.40%
same,Population with increased mitochondrial mass (%),[4],4.40%
same,Population with membrane disruption (%),[4],12.09%
same,Cell count normalized to cells treated with DMSO control,[5],0.8405
same,Cell count per well,[5],262
same,Population Fragmented Nuclei (%),[5],31.54%
same,Population Healthy Nuclei (%),[5],59.62%
same,Population Pyknosed Nuclei (%),[5],8.85%
same,Population apoptotic cell (%),[5],73.91%
same,Population cell that influence microtubule strucutre (%),[5],2.58%
same,Population with increased mitochondrial mass (%),[5],4.52%
same,Population with membrane disruption (%),[5],5.16%
same,Cell count normalized to cells treated with DMSO control,[6],1.041
same,Cell count per well,[6],148
same,Population Fragmented Nuclei (%),[6],19.59%
same,Population Healthy Nuclei (%),[6],67.57%
same,Population Pyknosed Nuclei (%),[6],12.84%
same,Population apoptotic cell (%),[6],94.74%
same,Population cell that influence microtubule strucutre (%),[6],3.00%
same,Population with increased mitochondrial mass (%),[6],4.00%
same,Population with membrane disruption (%),[6],4.00%
same,Cell count normalized to cells treated with DMSO control,[7],0.7931
same,Cell count per well,[7],353
same,Population Fragmented Nuclei (%),[7],26.16%
same,Population Healthy Nuclei (%),[7],66.57%
same,Population Pyknosed Nuclei (%),[7],7.27%
same,Population apoptotic cell (%),[7],80.00%
same,Population cell that influence microtubule strucutre (%),[7],3.06%
same,Population with increased mitochondrial mass (%),[7],2.62%
same,Population with membrane disruption (%),[7],3.93%
same,Cell count normalized to cells treated with DMSO control,[8],1.07
same,Cell count per well,[8],221
same,Population Fragmented Nuclei (%),[8],17.59%
same,Population Healthy Nuclei (%),[8],71.30%
same,Population Pyknosed Nuclei (%),[8],11.11%
same,Population apoptotic cell (%),[8],87.50%
same,Population cell that influence microtubule strucutre (%),[8],5.84%
same,Population with increased mitochondrial mass (%),[8],3.90%
same,Population with membrane disruption (%),[8],5.84%
same,Cell count normalized to cells treated with DMSO control,[9],1.105
same,Cell count per well,[9],230
same,Population Fragmented Nuclei (%),[9],38.01%
same,Population Healthy Nuclei (%),[9],52.49%
same,Population Pyknosed Nuclei (%),[9],9.50%
same,Population apoptotic cell (%),[9],85.71%
same,Population cell that influence microtubule strucutre (%),[9],0.86%
same,Population with increased mitochondrial mass (%),[9],0.86%
same,Population with membrane disruption (%),[9],3.45%
same,Cell count normalized to cells treated with DMSO control,[10],0.875
same,Cell count per well,[10],75
same,Population Fragmented Nuclei (%),[10],10.67%
same,Population Healthy Nuclei (%),[10],82.67%
same,Population Pyknosed Nuclei (%),[10],6.67%
same,Population apoptotic cell (%),[10],80.00%
same,Population cell that influence microtubule strucutre (%),[10],3.23%
same,Population with increased mitochondrial mass (%),[10],3.23%
same,Population with membrane disruption (%),[10],6.45%
same,Cell count normalized to cells treated with DMSO control,[11],0.9149
same,Cell count per well,[11],242
same,Population Fragmented Nuclei (%),[11],26.79%
same,Population Healthy Nuclei (%),[11],56.70%
same,Population Pyknosed Nuclei (%),[11],16.52%
same,Population apoptotic cell (%),[11],64.86%
same,Population cell that influence microtubule strucutre (%),[11],62.20%
same,Population with increased mitochondrial mass (%),[11],41.73%
same,Population with membrane disruption (%),[11],55.91%
same,Cell count normalized to cells treated with DMSO control,[12],0.8031
same,Cell count per well,[12],95
same,Population Fragmented Nuclei (%),[12],10.75%
same,Population Healthy Nuclei (%),[12],74.19%
same,Population Pyknosed Nuclei (%),[12],15.05%
same,Population apoptotic cell (%),[12],85.71%
same,Population cell that influence microtubule strucutre (%),[12],39.13%
same,Population with increased mitochondrial mass (%),[12],52.17%
same,Population with membrane disruption (%),[12],28.99%
same,Cell count normalized to cells treated with DMSO control,[13],0.8277
same,Cell count per well,[13],258
same,Population Fragmented Nuclei (%),[13],25.41%
same,Population Healthy Nuclei (%),[13],59.43%
same,Population Pyknosed Nuclei (%),[13],15.16%
same,Population apoptotic cell (%),[13],75.68%
same,Population cell that influence microtubule strucutre (%),[13],25.52%
same,Population with increased mitochondrial mass (%),[13],33.10%
same,Population with membrane disruption (%),[13],26.90%
same,Cell count normalized to cells treated with DMSO control,[14],0.7946
same,Cell count per well,[14],113
same,Population Fragmented Nuclei (%),[14],10.81%
same,Population Healthy Nuclei (%),[14],73.87%
same,Population Pyknosed Nuclei (%),[14],15.32%
same,Population apoptotic cell (%),[14],70.59%
same,Population cell that influence microtubule strucutre (%),[14],19.51%
same,Population with increased mitochondrial mass (%),[14],31.71%
same,Population with membrane disruption (%),[14],9.76%
same,Cell count normalized to cells treated with DMSO control,[15],0.7572
same,Cell count per well,[15],337
same,Population Fragmented Nuclei (%),[15],22.70%
same,Population Healthy Nuclei (%),[15],63.19%
same,Population Pyknosed Nuclei (%),[15],14.11%
same,Population apoptotic cell (%),[15],89.13%
same,Population cell that influence microtubule strucutre (%),[15],11.65%
same,Population with increased mitochondrial mass (%),[15],14.56%
same,Population with membrane disruption (%),[15],12.62%
same,Cell count normalized to cells treated with DMSO control,[16],0.76
same,Cell count per well,[16],157
same,Population Fragmented Nuclei (%),[16],10.00%
same,Population Healthy Nuclei (%),[16],69.33%
same,Population Pyknosed Nuclei (%),[16],20.67%
same,Population apoptotic cell (%),[16],87.10%
same,Population cell that influence microtubule strucutre (%),[16],14.42%
same,Population with increased mitochondrial mass (%),[16],14.42%
same,Population with membrane disruption (%),[16],11.54%
